Data on 14 compounds can be found in publication PMC3759295 (Toxicology letters, 2013).

The data set concerns CYP1A1 mRNA in primary human hepatocytes. The experiment in a line: CYP1A1 mRNA expression in primary human hepatocytes. It counts as cell-based.
Setting [1] is: hepatocyte culture LH45, 10 µM, 24 h.
Setting [2] is: hepatocyte culture LH45, 50 µM, 24 h.
Where [3] appears, read: hepatocyte culture LH46, 10 µM, 24 h.
Setting [4] is: hepatocyte culture LH46, 50 µM, 24 h.
Setting [5] is: hepatocyte culture LH47, 50 µM, 24 h.
The mark [6] stands for this setting: hepatocyte culture LH48 (so in the source), 50 µM, 24 h.

Regarding `COc1cc(-c2[o+]c3cc(O)cc(O[C@@H]4O[C@H](CO)[C@@H](O)[C@H](O)[C@H]4O)c3cc2O[C@@H]2O[C@H](CO)[C@@H](O)[C@H](O)[C@H]2O)cc(OC)c1O.[Cl-]` [MAL-2, malvidin-3,5-di-O-glucoside chloride], the “CYP1A1 mRNA fold induction over the vehicle-treated cells, LH45” value (from here on “CYP1A1 mRNA fold induction … LH45”) under setting [1] is 1.14 ± 0.28 fold and the “CYP1A1 mRNA fold induction … LH45” value under setting [2] came to 0.44 ± 0.01 fold. The “CYP1A1 mRNA fold induction over the vehicle-treated cells, LH46” value (from here on “CYP1A1 mRNA fold induction … LH46”) is, setting by setting: under setting [3], 1.72 ± 0.39 fold; under setting [4], 1.64 ± 0.38 fold. Under setting [5], the “CYP1A1 mRNA fold induction over the vehicle-treated cells, LH47” value (shortened to “CYP1A1 mRNA fold induction … LH47”) was determined as 0.56 ± 0.07 fold. For the same compound, the “CYP1A1 mRNA fold induction over the vehicle-treated cells, LH48” value (from here on “CYP1A1 mRNA fold induction … LH48”) under setting [6] amounted to 0.93 ± 0.09 fold.

Regarding `Oc1cc(O)c2cc(O[C@@H]3OC[C@H](O)[C@H](O)[C@H]3O)c(-c3ccc(O)c(O)c3)[o+]c2c1.[Cl-]` [CYA-5, cyanidin-3-O-arabinoside chloride], for the setting “10 µM”, the “CYP1A1 mRNA fold induction … LH45” value was 0.69 ± 0.06 fold and the “CYP1A1 mRNA fold induction … LH46” value amounted to 0.67 ± 0.07 fold. Under “50 µM”, the “CYP1A1 mRNA fold induction … LH45” value came out at 1.16 ± 0.17 fold; the “CYP1A1 mRNA fold induction … LH46” value was found to be 0.61 ± 0.08 fold; the “CYP1A1 mRNA fold induction … LH47” value is recorded as 0.34 ± 0.11 fold; the “CYP1A1 mRNA fold induction … LH48” value came out at 0.07 ± 0.01 fold.

Take `OC[C@H]1O[C@@H](Oc2cc3c(O)cc(O)cc3[o+]c2-c2cc(O)c(O)c(O)c2)[C@H](O)[C@@H](O)[C@@H]1O.[Cl-]` [DEL-1, delphinidin-3-O-glucoside chloride]: the “CYP1A1 mRNA fold induction … LH45” value came out at 1.80 ± 0.11 fold under setting [1] and 1.50 ± 0.21 fold under setting [2]. The “CYP1A1 mRNA fold induction … LH46” value was determined as 1.99 ± 0.12 fold under setting [3] and 0.80 ± 0.07 fold under setting [4]. Besides, under setting [5], the “CYP1A1 mRNA fold induction … LH47” value is 1.01 ± 0.12 fold. Under setting [6], the “CYP1A1 mRNA fold induction … LH48” value amounted to 0.01 ± 0.00 fold.

As for `OC[C@H]1O[C@@H](Oc2cc3c(O)cc(O)cc3[o+]c2-c2ccc(O)c(O)c2)[C@H](O[C@@H]2OC[C@@H](O)[C@H](O)[C@H]2O)[C@@H](O)[C@@H]1O.[Cl-]` [CYA-8, cyanidin-3-O-sambubioside chloride], for the setting “10 µM”, the “CYP1A1 mRNA fold induction … LH45” value is listed as 0.26 ± 0.01 fold and the “CYP1A1 mRNA fold induction … LH46” value is recorded as 1.48 ± 1.14 fold. Besides, under “50 µM”, the “CYP1A1 mRNA fold induction … LH45” value turned out to be 0.20 ± 0.04 fold; the “CYP1A1 mRNA fold induction … LH46” value was found to be 1.72 ± 0.72 fold; the “CYP1A1 mRNA fold induction … LH47” value is reported as 2.44 fold; the “CYP1A1 mRNA fold induction … LH48” value is 0.02 ± 0.00 fold.

For the compound `OC[C@H]1O[C@@H](Oc2cc3c(O)cc(O)cc3[o+]c2-c2cc(O)c(O)c(O)c2)[C@H](O[C@@H]2OC[C@@H](O)[C@H](O)[C@H]2O)[C@@H](O)[C@@H]1O.[Cl-]` [DEL-4, delphinidin-3-O-sambubioside chloride], the “CYP1A1 mRNA fold induction … LH45” value is 0.26 ± 0.21 fold under setting [1] and 0.34 ± 0.09 fold under setting [2]. For the same compound, the “CYP1A1 mRNA fold induction … LH46” value under setting [3] was found to be 1.11 ± 0.20 fold and the “CYP1A1 mRNA fold induction … LH46” value under setting [4] was 1.31 ± 0.05 fold. Besides, the “CYP1A1 mRNA fold induction … LH47” value under setting [5] was determined as 0.21 ± 0.26 fold. Moreover, the “CYP1A1 mRNA fold induction … LH48” value under setting [6] is reported as 0.07 ± 0.01 fold.

Consider `C[C@@H]1O[C@@H](OC[C@H]2O[C@@H](Oc3cc4c(O)cc(O)cc4[o+]c3-c3ccc(O)c(O)c3)[C@H](O)[C@@H](O)[C@@H]2O)[C@H](O)[C@H](O)[C@H]1O.[Cl-]` [CYA-2, cyanidin-3-O-rutinoside chloride], for which, for the setting “10 µM”, the “CYP1A1 mRNA fold induction … LH45” value came to 2.34 ± 0.28 fold and the “CYP1A1 mRNA fold induction … LH46” value is listed as 0.55 ± 0.03 fold. Further, under “50 µM”, the “CYP1A1 mRNA fold induction … LH45” value is reported as 0.69 ± 0.25 fold; the “CYP1A1 mRNA fold induction … LH46” value is 0.91 ± 0.04 fold; the “CYP1A1 mRNA fold induction … LH47” value is given as 0.57 ± 0.09 fold; the “CYP1A1 mRNA fold induction … LH48” value is 0.07 ± 0.02 fold.

In the case of `OC[C@H]1O[C@@H](O[C@H]2[C@@H](Oc3cc4c(O)cc(O)cc4[o+]c3-c3ccc(O)c(O)c3)O[C@H](CO)[C@@H](O)[C@@H]2O)[C@H](O)[C@@H](O)[C@@H]1O.[Cl-]` [CYA-4, cyanidin-3-O-sophoroside chloride], where the note is “10 µM”, the “CYP1A1 mRNA fold induction … LH45” value is recorded as 1.31 ± 0.25 fold and the “CYP1A1 mRNA fold induction … LH46” value was found to be 2.97 ± 0.39 fold. Also, where the note is “50 µM”, the “CYP1A1 mRNA fold induction … LH45” value is 0.46 ± 0.03 fold; the “CYP1A1 mRNA fold induction … LH46” value is 0.28 ± 0.05 fold; the “CYP1A1 mRNA fold induction … LH47” value is reported as 0.51 ± 0.16 fold; the “CYP1A1 mRNA fold induction … LH48” value was 0.05 ± 0.02 fold.

On to `COc1cc(-c2[o+]c3cc(O)cc(O)c3cc2O[C@@H]2O[C@H](CO)[C@@H](O)[C@H](O)[C@H]2O)ccc1O.[Cl-]` [PEO-1, peonidin-3-O-glucoside chloride], for which the “CYP1A1 mRNA fold induction … LH45” value reads like this: under setting [1], 0.21 ± 0.03 fold; under setting [2], 0.80 ± 0.22 fold. Also, the “CYP1A1 mRNA fold induction … LH46” value is recorded as 2.14 ± 0.18 fold under setting [3] and 2.48 ± 0.57 fold under setting [4]. Also, the “CYP1A1 mRNA fold induction … LH47” value under setting [5] is recorded as 0.51 ± 0.07 fold. The “CYP1A1 mRNA fold induction … LH48” value under setting [6] was 0.08 ± 0.03 fold.

Take `C[C@@H]1O[C@@H](Oc2cc3c(O)cc(O)cc3[o+]c2-c2ccc(O)c(O)c2)[C@H](O)[C@H](O)[C@H]1O.[Cl-]` [CYA-6, cyanidin-3-O-rhamnoside chloride]: where the note is “10 µM”, the “CYP1A1 mRNA fold induction … LH45” value is 0.77 ± 0.12 fold and the “CYP1A1 mRNA fold induction … LH46” value is on record as 1.19 ± 0.14 fold. For the same compound, for the setting “50 µM”, the “CYP1A1 mRNA fold induction … LH45” value is on record as 0.73 ± 0.04 fold; the “CYP1A1 mRNA fold induction … LH46” value came to 1.36 ± 0.03 fold; the “CYP1A1 mRNA fold induction … LH47” value came to 0.31 ±0.03 fold; the “CYP1A1 mRNA fold induction … LH48” value was found to be 0.07 ± 0.00 fold.

With `OC[C@H]1O[C@@H](Oc2cc3c(O[C@@H]4O[C@H](CO)[C@@H](O)[C@H](O)[C@H]4O)cc(O)cc3[o+]c2-c2ccc(O)cc2)[C@H](O)[C@@H](O)[C@@H]1O` [PEL-1, pelargonidin-3,5-di-O-glucoside chloride], under “10 µM”, the “CYP1A1 mRNA fold induction … LH45” value is recorded as 0.70 ± 0.17 fold and the “CYP1A1 mRNA fold induction … LH46” value is 1.49 ± 0.10 fold. For the same compound, under “50 µM”, the “CYP1A1 mRNA fold induction … LH45” value came to 1.17 ± 0.14 fold; the “CYP1A1 mRNA fold induction … LH46” value stood at 2.21 ± 0.66 fold; the “CYP1A1 mRNA fold induction … LH47” value came to 0.59 ± 0.52 fold; the “CYP1A1 mRNA fold induction … LH48” value came out at 0.98 ± 0.27 fold.

For the compound `OC[C@H]1O[C@@H](Oc2cc3c(O)cc(O)cc3[o+]c2-c2ccc(O)c(O)c2)[C@H](O)[C@@H](O)[C@H]1O.[Cl-]` [CYA-7, cyanidin-3-O-galactoside chloride], under “10 µM”, the “CYP1A1 mRNA fold induction … LH45” value came to 0.65 ± 0.11 fold and the “CYP1A1 mRNA fold induction … LH46” value came out at 2.62 ± 0.41 fold. For the same compound, for the setting “50 µM”, the “CYP1A1 mRNA fold induction … LH45” value is 0.34 ± 0.06 fold; the “CYP1A1 mRNA fold induction … LH46” value was determined as 1.85 ± 0.09 fold; the “CYP1A1 mRNA fold induction … LH47” value is reported as 0.25 ± 0.02 fold; the “CYP1A1 mRNA fold induction … LH48” value is listed as 0.05 ± 0.02 fold.

Consider `C[C@@H]1O[C@@H](OC[C@H]2O[C@@H](Oc3cc4c(O)cc(O)cc4[o+]c3-c3cc(O)c(O)c(O)c3)[C@H](O)[C@@H](O)[C@@H]2O)[C@H](O)[C@H](O)[C@H]1O.[Cl-]` [DEL-2, delphinidin-3-O-rutinoside chloride], for which the “CYP1A1 mRNA fold induction … LH45” value by setting is: under setting [1], 1.53 ± 0.36 fold; under setting [2], 0.53 ± 0.11 fold. Moreover, the “CYP1A1 mRNA fold induction … LH46” value under setting [3] was 1.34 ± 0.10 fold and the “CYP1A1 mRNA fold induction … LH46” value under setting [4] was 0.68 ± 0.01 fold. Besides, under setting [5], the “CYP1A1 mRNA fold induction … LH47” value is listed as 0.23 ± 0.05 fold. Moreover, the “CYP1A1 mRNA fold induction … LH48” value under setting [6] is 0.02 ± 0.01 fold.

Turning to `OCC1OC(Oc2cc3c(OC4OC(CO)C(O)C(O)C4O)cc(O)cc3[o+]c2-c2cc(O)c(O)c(O)c2)C(O)C(O)C1O.[Cl-]` (stereo not drawn) [DEL-3, delphinidin-3,5-di-O-glucoside chloride], the “CYP1A1 mRNA fold induction … LH45” value is, setting by setting: under setting [1], 0.82 ± 0.02 fold; under setting [2], 1.70 ± 3.26 fold. Moreover, the “CYP1A1 mRNA fold induction … LH46” value runs as follows: under setting [3], 0.85 ± 0.06 fold; under setting [4], 1.14 ± 0.21 fold. Moreover, the “CYP1A1 mRNA fold induction … LH47” value under setting [5] worked out at 0.39 ± 0.06 fold. Moreover, the “CYP1A1 mRNA fold induction … LH48” value under setting [6] is 0.02 ± 0.01 fold.

With `OC[C@H]1O[C@@H](Oc2cc3c(O)cc(O)cc3[o+]c2-c2ccc(O)c(O)c2)[C@H](O[C@@H]2OC[C@@H](O)[C@H](O)[C@H]2O)[C@@H](O)[C@H]1O.[Cl-]` [CYA-9, cyanidin-3-O-lathyroside chloride], where the note is “10 µM”, the “CYP1A1 mRNA fold induction … LH45” value is 0.32 ± 0.12 fold and the “CYP1A1 mRNA fold induction … LH46” value is listed as 0.91 ± 0.11 fold. Under “50 µM”, the “CYP1A1 mRNA fold induction … LH45” value is 0.61 ± 0.05 fold; the “CYP1A1 mRNA fold induction … LH46” value came to 1.77 ± 0.49 fold; the “CYP1A1 mRNA fold induction … LH47” value turned out to be 0.11 ± 0.17 fold; the “CYP1A1 mRNA fold induction … LH48” value is reported as 0.09 ± 0.05 fold.
